Assay [1] has as its target T1, carboanhydrase of the subtype Va of mice (mCA Va) (Mus musculus, UniProt P23589).
T1 construct: made in house; host or cells: Escherichia coli BL 21 (DE3)
T1 sequence (P23589 30-299): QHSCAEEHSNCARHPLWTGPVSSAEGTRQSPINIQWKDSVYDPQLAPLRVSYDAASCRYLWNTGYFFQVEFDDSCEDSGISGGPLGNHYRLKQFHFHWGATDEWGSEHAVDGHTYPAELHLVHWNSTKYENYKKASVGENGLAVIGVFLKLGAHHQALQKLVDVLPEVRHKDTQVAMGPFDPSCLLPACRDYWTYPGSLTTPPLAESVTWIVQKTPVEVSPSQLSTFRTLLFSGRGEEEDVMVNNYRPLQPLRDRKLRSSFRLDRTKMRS
Description: 4-nitrophenylacetate-esterase enzyme activity test, mCA Va used at 120 nM. It counts as biochemical. The conditions noted are these: mCA Va obtained by biotechnological processes; enzyme concentration 120 nM; read-out: inhibitory action on carboanhydrase of the subtype Va of mice (IC50).
Description: In a departure from the test procedure described by Scozzafava et al, in this case the enzyme mCA Va was used in a concentration of 120 nM. The mCA Va was obtained in known manner by the method described by H. R. Heck et al., Journal of Biological Chemistry 269 (1994) 24742-24746. To this end, the strain of bacteria Escherichia coli BL 21 (DE3) was used, which was used with a plasmid vector which contained the sequence coding for mCA Va under the control of the T7 promoter which can be induced by isopropyl-β-D-thiogalactopyranoside (IPTG). The bacterial culture was inoculated at 37° C. with stirring into a Luria-Bertani liquid medium containing ampicillin (100 μg/ml) and its growth was monitored by spectrophotometry at 600 nm. Once the bacterial culture had entered the exponential growth phase, IPTG was added in a final concentration of 1 mmol/liter. After 3 hours incubation time (37° C. with stirring), the bacterial culture was centrifuged at 7000×g for 15 minutes, and the supernatant was discarded. The resulting pellet was taken up in 0.1 vol twice-distilled water, and lysozyme (100 μg/ml) was added thereto. The cell lysis took place under ultrasound treatment. […] After each ultrasound pulse, the absorption of the samples was determined at 600 nm, for which each 100 μl of a-sample was diluted with 900 μl twice-distilled water. […]

In assay [2] the test system is of the 3T3-F442A cell line. Briefly: Test model according to Hazen et al.: formation of acid-soluble metabolic products of the citric acid cycle. It counts as cell-based. The conditions noted are these: Adipocyte; rat adipocytes of the 3T3-F442A cell line; read-out: inhibitory effect on the formation of acid-soluble metabolic products of the citric acid cycle (IC50). The text has this:
In a second embodiment of the method according to the invention, compounds suitable for the treatment and/or prophylaxis of obesity can be discovered by selecting those compounds which are capable of reducing the amount of metabolic products formed in the citric acid cycle of isolated living mammalian cells or of lipidic secondary products of the citric acid cycle. […] Citrate is preferred. Furthermore, lipidic secondary products of the citric acid cycle, such as free fatty acids, are suitable as metabolic products. Lastly, in this second embodiment, the ability of the test compounds to inhibit the activity of at least one carboanhydrase occurring in mammals is also determined, although the test model used is set up differently from the first embodiment mentioned. The process of the second embodiment is based on the principle of determining in known manner the uptake of radioactivity from substrates of the citric acid cycle labeled with the ^14C-isotope into metabolic intermediate products or secondary products of the citric acid cycle of isolated, living mammalian cells and comparing the results obtained with the results obtained under otherwise identical conditions, but under the influence of CA-inhibitory compounds. Isolated living cells of rodents such as rats, mice or guinea-pigs, or of man, are preferably used in this variant of the method. Human cells are preferred. […]

One may read the IC50 as the concentration that gives 50% inhibition.

As to `CC1(C)O[C@@H]2[C@@H](CO[C@@]3(COS(N)(=O)=O)OC(C)(C)O[C@@H]23)O1` [topiramate], the IC50 is 74 nM in assay [1] and 348 nM in assay [2].
